Measured values published in PMC4594923, “Food Polyphenols Fail to Cause a Biologically Relevant Reduction of COX-2 Activity” (PLoS ONE, 2015).
Values joined by “and” are separate entries in the source; they are usually repeats but may differ in a detail not shown here. Identical values can stand only once. “Also recorded” adds a separate entry of the source.

Assays:
COX–2 [1] = target: T1, COX–2 (Homo sapiens, UniProt P35354); assay: cell-free COX–2 enzyme assay (PGE2 formation, LC-MS); type: biochemical; settings: for IC50 / IC50 (95% CI), COX–2 enzyme assay: calculated based on PGE2, n = 3; for IC50: read-out: IC50 (95% CI), COX–2 enzyme assay
T1 sequence (P35354 18-604): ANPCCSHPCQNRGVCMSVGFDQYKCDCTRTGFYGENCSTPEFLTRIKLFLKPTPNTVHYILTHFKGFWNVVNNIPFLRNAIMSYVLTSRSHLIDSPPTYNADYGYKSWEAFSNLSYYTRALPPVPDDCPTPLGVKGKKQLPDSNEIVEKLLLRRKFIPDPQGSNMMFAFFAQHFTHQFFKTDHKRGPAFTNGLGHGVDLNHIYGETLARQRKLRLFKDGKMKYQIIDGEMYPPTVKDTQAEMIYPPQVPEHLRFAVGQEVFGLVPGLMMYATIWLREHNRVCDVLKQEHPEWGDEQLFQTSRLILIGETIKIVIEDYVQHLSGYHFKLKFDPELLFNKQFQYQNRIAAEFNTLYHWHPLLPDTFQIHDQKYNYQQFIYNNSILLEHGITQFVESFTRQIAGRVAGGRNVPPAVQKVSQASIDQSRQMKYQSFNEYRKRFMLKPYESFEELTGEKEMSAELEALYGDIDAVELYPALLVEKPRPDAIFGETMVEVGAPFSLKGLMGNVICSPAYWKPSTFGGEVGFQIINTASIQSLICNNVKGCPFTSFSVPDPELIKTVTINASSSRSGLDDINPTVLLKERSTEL
Protocol: (§1) The in vitro assays were performed as described [6, 16, 18] and COX metabolites were quantified by LC-MS [18].
(§2) Primary human monocytes were freshly isolated from human blood. Blood was collected from healthy human subjects after written informed consent was obtained. […] After 24 h, the supernatant was sampled for LC-MS and cells were collected for the COX–2 expression analysis by Western Blotting.
(§3) GraphPad Prism 5.0 (GraphPad Software, San Diego, USA) was used for data analysis, the fitting of dose response curves and calculation of the IC50 values. Statistical differences were determined by Dunnetts test (LPS vs. other groups).

COX–2 [2] = target: T1, COX–2; assay: PGE2 formation in HCA–7 cells (24 h, LC-MS); type: cell-based; settings: for IC50 (95% CI), HCA-7 cell line: calculated based on PGE2, n = 3, 24 h; for changes of PGE2 formation in HCA–7 cells: non-cytotoxic concentrations, 24 h
Protocol: as §1
(§4) HCA–7 cells were incubated with sub-cytotoxic concentrations of the polyphenols dissolved in Tris buffered DMEM medium. Cytotoxicity of the polyphenols was evaluated by the lactate dehydrogenase leakage test (Cyto-Tox-ONE, Promega Mannheim, Germany). After 24 h the supernatant was collected for LC-MS analysis and the cells were harvested to analyze the COX–2 expression by Western Blotting.
After 24 h, the supernatant was sampled for LC-MS and cells were collected for the COX–2 expression analysis by Western Blotting.
as §3

COX–2 protein [3] = assay: COX–2 expression in HCA–7 cells (Western Blot); type: cell-based, human; settings: 24 h, vs. control
Protocol: as §4

COX–2 [4] = target: T1, COX–2; assay: PGE2 formation in LPS stimulated primary human monocytes (24 h, LC-MS); type: cell-based; settings: for IC50: read-out: IC50 (95% CI), primary monocytes
Protocol: as §1, §2, §3

COX–2 [5] = settings: cited from earlier work
COX–2 protein [6] = settings: cited from earlier work
[7] = cited from earlier work
ovine recombinant COX–1 = target: T2, ovine recombinant COX–1 (Ovis aries, UniProt P05979); assay: cell-free COX–1 enzyme assay (PGE2 formation, LC-MS); type: biochemical; parameters: purchased Cayman Chemicals/ Biomol, Hamburg, Germany; settings: for IC50 / IC50 (95% CI), COX–1 enzyme assay: calculated based on PGE2, n = 3; for IC50: read-out: IC50 (95% CI), COX–1 enzyme assay
T2 sequence (P05979 25-600): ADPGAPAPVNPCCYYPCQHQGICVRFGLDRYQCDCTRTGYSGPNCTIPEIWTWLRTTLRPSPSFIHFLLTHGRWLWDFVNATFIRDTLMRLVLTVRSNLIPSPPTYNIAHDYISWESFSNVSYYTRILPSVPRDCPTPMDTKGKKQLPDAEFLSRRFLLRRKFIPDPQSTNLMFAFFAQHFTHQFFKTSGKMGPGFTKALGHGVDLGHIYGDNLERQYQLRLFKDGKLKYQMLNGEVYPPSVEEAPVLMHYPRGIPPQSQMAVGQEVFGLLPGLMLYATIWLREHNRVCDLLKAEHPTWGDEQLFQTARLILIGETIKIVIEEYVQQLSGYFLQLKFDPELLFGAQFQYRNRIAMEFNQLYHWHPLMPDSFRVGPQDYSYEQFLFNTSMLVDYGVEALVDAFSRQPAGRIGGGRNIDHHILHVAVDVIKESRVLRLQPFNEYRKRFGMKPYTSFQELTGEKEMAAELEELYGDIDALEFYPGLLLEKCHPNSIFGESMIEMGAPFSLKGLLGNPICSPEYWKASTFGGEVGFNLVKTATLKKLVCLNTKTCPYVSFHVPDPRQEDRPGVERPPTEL
Protocol: as §1, §2, §3

COX–2 protein [8] = assay: COX–2 expression in LPS stimulated primary human monocytes (Western Blot); settings: 24 h, vs. control
Protocol: as §2

[9] = LPS stimulated, calculated based on PGE2, n = 3, 24 h

Row | IC50 (COX–2 [1]) | IC50 (95% CI), HCA-7 cell line (COX–2 [2]) | IC50 (ovine recombinant COX–1) | IC50 (95% CI), COX–2 enzyme assay (COX–2 [1]) | IC50 (COX–2 [4]; [9]) | IC50 (95% CI), COX–1 enzyme assay (ovine recombinant COX–1) | Compound | effect on COX–2 dependent PGE2 formation, cell-free enzyme assay (COX–2 [1]) | changes of PGE2 formation in HCA–7 cells (COX–2 [2]) | COX-2 Expression, HCA-7 cell line (COX–2 protein [3]) | effect on COX–1 dependent PGE2 formation, cell-free enzyme assay (ovine recombinant COX–1) | COX-2 Expression, primary monocytes (COX–2 protein [8]) | COX–2 protein levels, LPS stimulated RAW 264.7 cells (COX–2 protein [6]) | also measured
1 | – | – | – | no effect (up to 100 μM) | 24 µM | no effect (up to 100 μM) | COc1ccc(-c2cc(=O)c3c(OC)c(OC)c(OC)c(OC)c3o2)cc1OC [Nobiletin, nobiletin] | no effect | no or only slight; also recorded: affected | 100 μM:COX–2 ↓ | no effect | no effect(up to 100 μM) | decreased COX–2 protein levels | inhibition, HCA-7 cell line (COX–2 [2]; up to 100 μM): inhibition < 50%(up to 100 μM); COX-2 Expression, HCA-7 cell line (COX–2 protein [3]; listed as nobiletin): decreased COX–2 expression
2 | 22 µM | no effect (up to 1 μM) | 4 µM | – | – | – | hopeaphenol | dose-dependently decreased; also recorded: inhibited | no or only slight | no effect (up to 1 μM) | dose-dependently decreased; also recorded: inhibited | 1 μM: COX–2 ↓ | – | inhibition, primary monocytes (COX–2 [4]; up to 1 μM): inhibition < 50% (up to 1 μM); COX-2 Expression, primary monocytes (COX–2 protein [8]; listed as hopeaphenol): Decreased COX–2 protein levels

More lines, now with the values behind:

Row | Compound | IC50 (COX–2 [1]) | IC50 (95% CI), HCA-7 cell line (COX–2 [2]) | IC50 (ovine recombinant COX–1) | IC50 (95% CI), COX–2 enzyme assay (COX–2 [1]) | IC50 (COX–2 [4]; [9]) | IC50 (95% CI), COX–1 enzyme assay (ovine recombinant COX–1) | effect on COX–2 dependent PGE2 formation, cell-free enzyme assay (COX–2 [1]) | changes of PGE2 formation in HCA–7 cells (COX–2 [2]) | COX-2 Expression, HCA-7 cell line (COX–2 protein [3]) | effect on COX–1 dependent PGE2 formation, cell-free enzyme assay (ovine recombinant COX–1) | COX-2 Expression, primary monocytes (COX–2 protein [8]) | COX–2 protein levels, LPS stimulated RAW 264.7 cells (COX–2 protein [6]) | also measured
3 | O=C(O[C@@H]1Cc2c(O)cc(O)cc2O[C@@H]1c1cc(O)c(O)c(O)c1)c1cc(O)c(O)c(O)c1 [EGCG, epigallocatechingallat] | 32 µM | no effect (up to 10 μM) | 17 µM | – | – | – | dose-dependently decreased; also recorded: inhibited | no or only slight | no effect(up to 10 μM) | dose-dependently decreased; also recorded: inhibited | Decreased COX–2 protein levels and 10 μM:COX–2 ↓ | – | IC50 (95% CI), primary monocytes (COX–2 [4]; [9]): no effect(up to 10 μM); PGE2 formation / levels, RAW 264.7 cells (COX–2 [5]): lack of effect; COX–2 (protein) levels, RAW 264.7 cells (COX–2 protein [6]): slight increase; maximal plasma concentrations ([7]; in vivo): 0.13 to 0.33 µM
4 | O=C1C[C@@H](c2ccc(O)cc2)Oc2cc(O)cc(O)c21 [Naringenin, naringenin] | – | – | – | no effect (up to 100 μM) | 29 µM | no effect (up to 100 μM) | no effect | affected | 100 μM:COX–2 ↓ | no effect | 100, 30 μM:COX–2 ↓ | decreased COX–2 protein levels | inhibition at 100 µM (COX–2 [2]; HCA-7, 100 μM, read-out: inhibition, HCA-7 cell line): 53%; COX-2 Expression, HCA-7 cell line (COX–2 protein [3]; listed as naringenin): decreased COX–2 expression; plasma peak level, total naringenin (free and conjugated form) ([7]; humans, ingestion of grapefruit juice (0.2 g total naringenin)): 6 µM; COX-2 Expression, primary monocytes (COX–2 protein [8]; listed as naringenin): Decreased COX–2 protein levels
5 | COc1c(O)cc(O)c2c(=O)cc(-c3ccccc3)oc12 [Wogonin, wogonin] | – | – | – | – | – | no effect (up to 100 μM) | – | – | – | no effect | – | – | IC50 (COX–2 [5]; read-out: IC50, LPS stimulated murine macrophages): 0.3 µM
